From paper PMC6364417, “Kinase inhibitor library screening identifies synergistic drug combinations effective in sensitive and resistant melanoma cells” (Journal of Experimental & Clinical Cancer Research : CR, 2019)

Key:
Assay in all cases: Kinase inhibitor library screening, PrestoBlue cell viability, 1 or 10 μM, 72 h
IGR37 cells (parental) = conditions: for Cell viability in kinase inhibitor library screening, IGR37 Parental, 1μΜ / Cell viability in kinase inhibitor library screening, IGR37 Parental, 10μΜ: 72 h, in %
Method: (§1) After 72 h of treatment, cell viability was assessed using the PrestoBlue Cell Viability Reagent (ThermoFisher Scientific). Measurements were performed with the CLARIOstar Monochromator microplate reader (BMG Labtech).
(§2) Kinase inhibitor library screening. […] Each cell line was treated in its sensitive form (parental), and also as 2 resistant derivatives, which were made resistant to either Vemurafenib (XP) or Dabrafenib (GP). Drugs were added at 2 different concentrations, 1 and 10 μM, for 72 h and cell viability was assessed using the PrestoBlue Cell Viability assay. Results are depicted as % viability compared to untreated cells. Each cell line was analyzed at least in duplicate. […] (XLSX 95 kb)

[1] = tested on: A375-GP cells (Dabrafenib-resistant); conditions: for Cell viability in kinase inhibitor library screening, A375 GP, 1μΜ / Cell viability in kinase inhibitor library screening, A375 GP, 10μΜ: 72 h
Method: as §1, §2

[2] = tested on: A375-XP cells (Vemurafenib-resistant); conditions: for Cell viability in kinase inhibitor library screening, A375 XP, 1μΜ / Cell viability in kinase inhibitor library screening, A375 XP, 10μΜ: 72 h
Method: as §1, §2

[3] = tested on: 501Mel-GP cells (Dabrafenib-resistant); conditions: 72 h; for Cell viability in kinase inhibitor library screening, 501Mel GP, 1μΜ / Cell viability in kinase inhibitor library screening, 501Mel GP, 10μΜ: in %
Method: as §1, §2

[4] = tested on: 501Mel-XP cells (Vemurafenib-resistant); conditions: 72 h; for Cell viability in kinase inhibitor library screening, 501Mel XP, 1μΜ / Cell viability in kinase inhibitor library screening, 501Mel XP, 10μΜ: in %
Method: as §1, §2

A375 cells (parental) = conditions: for Cell viability in kinase inhibitor library screening, A375 Parental, 10μΜ / Cell viability in kinase inhibitor library screening, A375 Parental, 1μΜ: 72 h
Method: as §1, §2

[5] = tested on: IGR37-XP cells (Vemurafenib-resistant); conditions: for Cell viability in kinase inhibitor library screening, IGR37 XP, 10μΜ / Cell viability in kinase inhibitor library screening, IGR37 XP, 1μΜ: 72 h; for Cell viability in kinase inhibitor library screening, IGR37 XP, 1μΜ: in %
Method: as §1, §2

[6] = tested on: IGR37-GP cells (Dabrafenib-resistant); conditions: for Cell viability in kinase inhibitor library screening, IGR37 GP, 10μΜ / Cell viability in kinase inhibitor library screening, IGR37 GP, 1μΜ: 72 h; for Cell viability in kinase inhibitor library screening, IGR37 GP, 1μΜ: in %
Method: as §1, §2

501Mel cells (parental) = conditions: 72 h; for Cell viability in kinase inhibitor library screening, 501Mel Parental, 1μΜ / Cell viability in kinase inhibitor library screening, 501Mel Parental, 10μΜ: in %
Method: as §1, §2

Compound | Cell viability in kinase inhibitor library screening, IGR37 Parental, 1μΜ (IGR37 cells (parental)) | Cell viability in kinase inhibitor library screening, IGR37 Parental, 10μΜ (IGR37 cells (parental)) | Cell viability in kinase inhibitor library screening, A375 GP, 1μΜ [1] | Cell viability in kinase inhibitor library screening, A375 GP, 10μΜ [1] | Cell viability in kinase inhibitor library screening, A375 XP, 1μΜ [2] | Cell viability in kinase inhibitor library screening, A375 XP, 10μΜ [2] | Cell viability in kinase inhibitor library screening, 501Mel GP, 1μΜ [3] | Cell viability in kinase inhibitor library screening, 501Mel GP, 10μΜ [3] | Cell viability in kinase inhibitor library screening, 501Mel XP, 1μΜ [4] | Cell viability in kinase inhibitor library screening, 501Mel XP, 10μΜ [4] | Cell viability in kinase inhibitor library screening, A375 Parental, 10μΜ (A375 cells (parental)) | Cell viability in kinase inhibitor library screening, A375 Parental, 1μΜ (A375 cells (parental)) | Cell viability in kinase inhibitor library screening, IGR37 XP, 10μΜ [5] [%] | Cell viability in kinase inhibitor library screening, IGR37 XP, 1μΜ [5] | Cell viability in kinase inhibitor library screening, IGR37 GP, 10μΜ [6] [%] | Cell viability in kinase inhibitor library screening, IGR37 GP, 1μΜ [6] | Cell viability in kinase inhibitor library screening, 501Mel Parental, 1μΜ (501Mel cells (parental)) | Cell viability in kinase inhibitor library screening, 501Mel Parental, 10μΜ (501Mel cells (parental)) | also measured
CCN1CCN(c2ccc(Nc3cc(N(C)C(=O)Nc4c(Cl)c(OC)cc(OC)c4Cl)ncn3)cc2)CC1 [BGJ398 (NVP-BGJ398)] | – | – | – | – | – | – | – | – | – | – | – | – | – | – | – | – | – | – | viability at 1 µM (IGR37 cells (parental); Homo sapiens, IGR-37, 72 h, read-out: cell viability, IGR37 Parental, 1μΜ): 100%; viability at 10 µM (IGR37 cells (parental); Homo sapiens, IGR-37, 72 h, read-out: cell viability, IGR37 Parental, 10μΜ): 4.3%; viability at 1 µM ([1]; Homo sapiens, A-375, 72 h, read-out: cell viability, A375 GP, 1μΜ): 101%; viability at 10 µM ([1]; Homo sapiens, A-375, 72 h, read-out: cell viability, A375 GP, 10μΜ): 6.6%; viability at 1 µM ([2]; Homo sapiens, A-375, 72 h, read-out: cell viability, A375 XP, 1μΜ): 104%; viability at 10 µM ([2]; Homo sapiens, A-375, 72 h, read-out: cell viability, A375 XP, 10μΜ): 3.9%; viability at 1 µM ([3]; Homo sapiens, read-out: cell viability, 501Mel GP, 1μΜ): 108%; viability at 10 µM ([3]; Homo sapiens, read-out: cell viability, 501Mel GP, 10μΜ): 0.142%; viability at 1 µM ([4]; Homo sapiens, read-out: cell viability, 501Mel XP, 1μΜ): 97.9%; viability at 10 µM ([4]; Homo sapiens, read-out: cell viability, 501Mel XP, 10μΜ): -0.109%; viability at 1 µM (A375 cells (parental); Homo sapiens, A-375, 72 h, read-out: cell viability, A375 Parental, 1μΜ): 101%; viability at 10 µM (A375 cells (parental); Homo sapiens, A-375, 72 h, read-out: cell viability, A375 Parental, 10μΜ): 9%; viability at 1 µM ([5]; Homo sapiens, IGR-37, 72 h, read-out: cell viability, IGR37 XP, 1μΜ): 97.5%; viability at 10 µM ([5]; Homo sapiens, IGR-37, 72 h, read-out: cell viability, IGR37 XP, 10μΜ): 1%; viability at 1 µM ([6]; Homo sapiens, IGR-37, 72 h, read-out: cell viability, IGR37 GP, 1μΜ): 87.7%; viability at 10 µM ([6]; Homo sapiens, IGR-37, 72 h, read-out: cell viability, IGR37 GP, 10μΜ): 3.2%; viability at 1 µM (501Mel cells (parental); Homo sapiens, read-out: cell viability, 501Mel Parental, 1μΜ): 96.6%; viability at 10 µM (501Mel cells (parental); Homo sapiens, read-out: cell viability, 501Mel Parental, 10μΜ): 0.424%
CC[C@@H]1C(=O)N(C)c2cnc(Nc3ccc(C(=O)N[C@H]4CC[C@H](N5CCN(CC6CC6)CC5)CC4)cc3OC)nc2N1C(C)C [BI6727 (Volasertib)] | 36.2 | 43.0 | 22.8 | 28.0 | 37.1 | 16.8 | 26.5 | 0.363 | 9.9 | 0.4 | 29.8 | 21.7 | 2.7 | 65.8 | 8.8 | 75.9 | 63.2 | 1.3 | –
CC[C@@H]1C(=O)N(C)c2cnc(Nc3ccc(C(=O)NC4CCN(C)CC4)cc3OC)nc2N1C1CCCC1 [BI 2536] | 71.6 | 1.3 | 31.1 | 15.5 | 42.2 | 8.5 | 52.3 | 0.263 | 29.2 | -0.237 | 30.1 | 31.0 | 1.5 | 76.3 | 2.8 | 82.9 | 77.3 | 1.6 | –
